Experimental data reported in publication PMC10108397 (ACS Medicinal Chemistry Letters, 2023).

How the values were obtained:
[1] = tested on: phospho-AKT (Ser129); test: Western blot analyses of pAKT and AKT in MDA-MB-231 cells; assay type: cell-based; settings: 24 h exposure
[2] = tested on: MDA-MB-231 cells; test: MDA-MB-231 cell viability assay; assay type: cell-based; settings: 48 h, up to 10 μM
[3] = tested on: MDA-MB-231 cells; settings: 2–10 μM, 24–72 h, WST-1; cited from earlier work
[4] = tested on: 13 multiple myeloma cell lines; settings: cited from earlier work
[5] = PAMPA; assay type: in vitro ADME; settings: correlation
[6] = tested on: DYRKs and HIPKs; test: Enzymatic profiling, 8-member DYRK and HIPK panel; assay type: biochemical; settings: 1 μM
[7] = Kinetic solubility; settings: for measured solubility relative to the dose concentration: actual solubility estimated to be higher than Table 1; for solubility kinetic at 24 h: pH 7.4, kinetic solubility, PBS pH 7.4, 24-hour incubation
[8] = biological target: PIP5K1C (Homo sapiens, UniProt O60331); test: Enzymatic assay, dose-response; assay type: biochemical
[9] = tested on: CK2α and CK2α′; test: CK2 NanoBRET assays

Sequence of PIP5K1C (O60331 whole entry): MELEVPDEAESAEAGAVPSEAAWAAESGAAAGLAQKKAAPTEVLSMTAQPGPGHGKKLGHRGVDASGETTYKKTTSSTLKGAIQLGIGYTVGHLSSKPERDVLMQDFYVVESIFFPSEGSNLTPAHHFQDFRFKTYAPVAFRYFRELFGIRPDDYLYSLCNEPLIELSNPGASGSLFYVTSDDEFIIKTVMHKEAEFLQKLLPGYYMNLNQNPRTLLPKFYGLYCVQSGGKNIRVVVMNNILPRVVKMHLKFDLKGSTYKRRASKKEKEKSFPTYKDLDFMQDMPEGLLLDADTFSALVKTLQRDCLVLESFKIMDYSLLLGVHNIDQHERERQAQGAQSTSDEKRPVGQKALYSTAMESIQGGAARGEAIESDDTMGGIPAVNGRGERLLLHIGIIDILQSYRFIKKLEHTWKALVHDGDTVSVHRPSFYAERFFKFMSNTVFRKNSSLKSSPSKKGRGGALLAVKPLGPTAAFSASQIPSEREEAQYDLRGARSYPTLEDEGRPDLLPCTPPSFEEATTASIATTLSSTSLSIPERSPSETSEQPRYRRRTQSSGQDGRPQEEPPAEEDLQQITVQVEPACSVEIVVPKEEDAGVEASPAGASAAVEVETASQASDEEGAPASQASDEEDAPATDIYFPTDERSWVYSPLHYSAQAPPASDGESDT

Row | SMILES | activity in DYRK and HIPK enzymatic panel [6] | measured solubility relative to the dose concentration [7] | solubility kinetic at 24 h [7] | other results
1 | O=C(O)c1ccc2c(c1)nc(Nc1cccc(Cl)c1)c1ccncc12 [CX-4945, 5-(3-chlorophenylamino)benzo[c][2,6]naphthyridine-8-carboxylic acid, reference compound] |  |  |  | AKT phosphorylation [1]: dose-dependent inhibition of AKT phosphorylation; total AKT expression [1]: no impact on total AKT expression; cytotoxicity [2]: did not exhibit cytotoxicity; cell growth [3]: cell growth is inhibited; antiproliferative activity [4]: low micromolar antiproliferative activity
2 | N#Cc1cccc(Nc2nc3cc(C(=O)O)ccc3c3cncnc23)c1 [CX-5011, reference compound] |  |  |  | cytotoxicity [2]: did not exhibit cytotoxicity
3 | O=C(O)c1ccc2c(c1)nc(NCc1ccccc1)c1ncncc12 [Compound 2] | lacked activity against DYRKs and HIPKs | greater than 75% | > 100 µM | human fraction absorbed (%FA) correlated with PAMPA Pe [5]: greater than 80%; AKT phosphorylation [1]: dose-dependent inhibition of AKT phosphorylation; total AKT expression [1]: no impact on total AKT expression; cytotoxicity [2]: neither compound 2 nor SGC-CK2-1 exhibited significant cytotoxicity
4 | O=C(O)c1ccc2c(c1)nc(NCc1ccccc1)c1ncccc12 [Compound 7] |  |  |  | human fraction absorbed (%FA) correlated with PAMPA Pe [5]: greater than 80%; PIP5K1C inhibition, enzymatic follow-up [8]: did not result in PIP5K1C inhibition; cytotoxicity [2]: did not exhibit cytotoxicity; binding in CK2α and CK2α′ NanoBRET assays [9]: not bind either kinase at concentrations up to 10 μM
5 | COc1cccc(CCNc2nc3cc(C(=O)O)ccc3c3cncnc23)c1 [Compound 8] | lacked activity against DYRKs and HIPKs | greater than 75% | > 100 µM | 
6 | O=C(O)c1ccc2c(c1)nc(NCCc1cccc(Cl)c1)c1ncncc12 [Compound 9] | lacked activity against DYRKs and HIPKs |  | > 100 µM | 
7 | O=C(O)c1ccc2c(c1)nc(NCCc1cccc(F)c1)c1ncncc12 [Compound 10] | potent inhibition of just one kinase |  | > 100 µM | 
8 | O=C(O)c1ccc2c(c1)nc(Nc1ccc3ccccc3c1)c1ncncc12 [Compound 11] |  |  |  | observation during solubility assessment [7]: insoluble residue
9 | O=C(O)c1ccc2c(c1)nc(Nc1ccc(Cl)cc1)c1ncncc12 [Compound 12] |  | greater than 75% |  | 
10 | O=C(O)c1ccc2c(c1)nc(Nc1cccc(F)c1)c1ncncc12 [Compound 13] |  | greater than 75% |  | 
11 | O=C(O)c1ccc2c(c1)nc(Nc1ccccc1Cl)c1ncncc12 [Compound 15] |  |  |  | observation during solubility assessment [7]: insoluble residue
12 | O=C(O)c1ccc2c(c1)nc(Nc1ccccc1)c1ncncc12 [Compound 16] |  | greater than 75% |  | 
13 | O=C(O)c1ccc2c(c1)nc(NCCc1ccccc1)c1ncncc12 [Compound 17] | potent inhibition of just one kinase |  | > 100 µM | 
14 | O=C(O)c1ccc2c(c1)nc(NCCc1cccc(Cl)c1)c1ccncc12 [Compound 18] | potent inhibition of just one kinase | greater than 75% | > 100 µM | 
15 | O=C(O)c1ccc2c(c1)nc(NCc1ccccc1)c1ccncc12 [Compound 21] | lacked activity against DYRKs and HIPKs | greater than 75% | > 100 µM | 
16 | O=C(O)c1ccc2c(c1)nc(NCCc1cccc(F)c1)c1ccncc12 [Compound 22] |  | greater than 75% | > 100 µM | 
17 | O=C(O)c1ccc2c(c1)nc(Nc1cccc(F)c1)c1ccncc12 [Compound 23] |  | greater than 75% |  | 
18 | COc1cccc(CCNc2nc3cc(C(=O)O)ccc3c3cnccc23)c1 [Compound 24] | potent inhibition of just one kinase | greater than 75% | > 100 µM | 
19 | O=C(O)c1ccc2c(c1)nc(Nc1ccccc1)c1ccncc12 [Compound 25] |  | greater than 75% |  | 
20 | O=C(O)c1ccc2c(c1)nc(NCCc1ccccc1)c1ccncc12 [Compound 27, 5-(phenethylamino)benzo[c][2,6]naphthyridine-8-carboxylic acid] |  | greater than 75% | > 100 µM | 
21 | COc1cccc(Nc2nc3cc(C(=O)O)ccc3c3cnccc23)c1 [Compound 28, 5-((3-methoxyphenyl)amino)benzo[c][2,6]naphthyridine-8-carboxylic acid] |  | greater than 75% |  | 
